Laboratory results published in patent US7074829B2, “Antiestrogens, process for their production and their pharmaceutical use” (Schering AG, priority 1998, dated 2006).

Tested on: uterus
Experiment: Uterus growth test in infant rats (antiestrogenic action)
Assay type: in vivo, rat
Conditions: inhibition compared to the estradiol benzoate (EB) control

Row | SMILES | Antiuterotrophic Action at 0.3 mg s.c. [% Inhibition]
1 | CC(=O)O[C@H]1CC[C@H]2C[C@@H](c3ccc(O)cc3)[C@@H](c3ccc(OCCCCC[S+]([O-])CCCC(F)(F)C(F)(F)F)cc3)C[C@@]21C (some centres unmarked) [Example 5] | 55 % Inhibition
2 | C[C@]12C[C@H](c3ccc(OCCCCC[S+]([O-])CCCC(F)(F)C(F)(F)F)cc3)[C@H](c3ccc(O)cc3)C[C@@H]1CC[C@@H]2O (stereo partly drawn) [Example 3, (1S,3S,4R,6S,9S)-9-Hydroxy-4-(4-hydroxyphenyl)-1-methyl-3-[4-(5-(4,4,5,5,5-pentafluoro-pentylsulfinyl)pentyloxy)phenyl]-bicyclo[4.3.0]nonane] | 37 % Inhibition
